# Data as given in patent US7973061B2, “Anaplastic lymphoma kinase modulators and methods of use” (Exelixis, Inc., priority 2004, dated 2011).
# Target: T1, ALK (baculovirus expressed human ALK kinase domain F1098-K1410) (Homo sapiens, UniProt Q9UM73)
# T1 construct: human ALK kinase domain F1098-K1410; made in house
# Assay: biochemical
# Conditions: 1 μM ATP, 4 μM poly-AEKY, 12 nM ALK, 2 hours at ambient temperature; read-out: ALK IC50
# How it was run: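 Inhibitors were tested at 10 concentrations, and IC50 was derived from a sigmoidal fit (Min, Max, Hill slope). Kinase activity was measured as percent ATP left after a 2 h reaction at room temperature, detected by luciferase-luciferin chemiluminescence. The ATP level was set close to KM for the ALK kinase domain F1098-K1410.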
# T1 sequence (Q9UM73 1098-1410): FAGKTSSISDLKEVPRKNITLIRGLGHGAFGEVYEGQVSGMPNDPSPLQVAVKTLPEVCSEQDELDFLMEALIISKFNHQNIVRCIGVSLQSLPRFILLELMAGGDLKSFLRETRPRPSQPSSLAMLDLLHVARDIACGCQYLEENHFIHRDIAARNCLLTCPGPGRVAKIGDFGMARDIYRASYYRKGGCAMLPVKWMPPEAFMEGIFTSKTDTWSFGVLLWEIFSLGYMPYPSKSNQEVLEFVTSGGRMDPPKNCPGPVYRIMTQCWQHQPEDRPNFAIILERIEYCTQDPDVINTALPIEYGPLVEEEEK
row,Compound,IC50
1,"O=C(COc1ccc(OC(F)(F)F)cc1)NCc1nc(C(=O)NCc2ccc(F)cc2)cs1 [Entry 206, N-[(4-fluorophenyl)methyl]-2-({[({4-[(trifluoromethyl)oxy]phenyl}oxy)acetyl]amino}methyl)-1,3-thiazole-4-carboxamide]",0.05 to 0.5 µM
2,"COc1ccc(CNC(=O)c2csc(CNC(=O)COc3ccc(OC(F)(F)F)cc3)n2)cc1 [Entry 178, N-{[4-(methyloxy)phenyl]methyl}-2-({[({4-[(trifluoromethyl)oxy]phenyl}oxy)acetyl]amino}methyl)-1,3-thiazole-4-carboxamide]",0.05 to 0.5 µM
3,"O=C(COc1ccc(OC(F)(F)F)cc1)NCc1nc(C(=O)NCCc2ccccc2F)co1 [Entry 143, N-[2-(2-fluorophenyl)ethyl]-2-({[({4-[(trifluoromethyl)oxy]phenyl}oxy)acetyl]amino}methyl)-1,3-oxazole-4-carboxamide]",0.05 to 0.5 µM
4,"CCc1ccc(NC(=O)NCc2nc(C(=O)NCCc3cccc(Cl)c3)cs2)cc1 [Entry 8, N-[2-(3-chlorophenyl)ethyl]-2-[({[(4-ethylphenyl)amino]carbonyl}amino)methyl]-1,3-thiazole-4-carboxamide]",< 0.05 µM
5,"COc1ccccc1CNC(=O)c1csc(CNC(=O)Cc2ccc(C(C)C)cc2)n1 [Entry 192, 2-[({[4-(1-methylethyl)phenyl]acetyl}amino)methyl]-N-{[2-(methyloxy)phenyl]methyl}-1,3-thiazole-4-carboxamide]",0.05 to 0.5 µM
6,"O=C(COc1ccc(OC(F)(F)F)cc1)NCc1nc(C(=O)N[C@H]2CCC[C@@H]2OCc2ccccc2)cs1 [Entry 103, N-{(1S,2S)-2-[(phenylmethyl)oxy]cyclopentyl}-2-({[({4-[(trifluoromethyl)oxy]phenyl}oxy)acetyl]amino}methyl)-1,3-thiazole-4-carboxamide]",0.05 to 0.5 µM
7,"NS(=O)(=O)c1ccc(CCNC(=O)c2coc(CNC(=O)COc3ccc(OC(F)(F)F)cc3)n2)cc1 [Entry 92, N-{2-[4-(aminosulfonyl)phenyl]ethyl}-2-({[({4-[(trifluoromethyl)oxy]phenyl}oxy)acetyl]amino}methyl)-1,3-oxazole-4-carboxamide]",0.05 to 0.5 µM
8,"COc1ccccc1CNC(=O)c1csc(CNC(=O)COc2ccc(C(C)(C)C)cc2)n1 [Entry 22, 2-{[({[4-(1,1-dimethylethyl)phenyl]oxy}acetyl)amino]methyl}-N-{[2-(methyloxy)phenyl]methyl}-1,3-thiazole-4-carboxamide]",< 0.05 µM
9,"C[C@@H](CNC(=O)c1coc(CNC(=O)COc2ccc(OC(F)(F)F)cc2)n1)c1ccccc1 [Entry 128, N-[(2R)-2-phenylpropyl]-2-({[({4-[(trifluoromethyl)oxy]phenyl}oxy)acetyl]amino}methyl)-1,3-oxazole-4-carboxamide]",0.05 to 0.5 µM
10,"COc1cccc(CNC(=O)c2csc(CNC(=O)Nc3ccc(C(C)C)cc3)n2)c1OC [Entry 78, N-{[2,3-bis(methyloxy)phenyl]methyl}-2-{[({[4-(1-methylethyl)phenyl]amino}carbonyl)amino]methyl}-1,3-thiazole-4-carboxamide]",0.05 to 0.5 µM
11,"CC(NC(=O)c1csc(CNC(=O)COc2ccc(OC(F)(F)F)cc2)n1)c1cccc2ccccc12 (centres unmarked) [Entry 85, N-(1-naphthalen-1-ylethyl)-2-({[({4-[(trifluoromethyl)oxy]phenyl}oxy)acetyl]amino}methyl)-1,3-thiazole-4-carboxamide]",0.05 to 0.5 µM
12,"CC(C)CCCCCCNC(=O)c1csc(CNC(=O)COc2ccc(OC(F)(F)F)cc2)n1 [Entry 189, N-(7-methyloctyl)-2-({[({4-[(trifluoromethyl)oxy]phenyl}oxy)acetyl]amino}methyl)-1,3-thiazole-4-carboxamide]",0.05 to 0.5 µM
13,"NC(=O)[C@@H](Cc1ccccc1)NC(=O)c1csc(CNC(=O)COc2ccc(OC(F)(F)F)cc2)n1 [Entry 70, Nalpha-{[2-({[({4-[(trifluoromethyl)oxy]phenyl}oxy)acetyl]amino}methyl)-1,3-thiazol-4-yl]carbonyl}-D-phenylalaninamide]",0.05 to 0.5 µM
14,"O=C(COc1ccc(OC(F)(F)F)cc1)NCc1nc(C(=O)NCc2cccs2)cs1 [Entry 164, N-(2-thienylmethyl)-2-({[({4-[(trifluoromethyl)oxy]phenyl}oxy)acetyl]amino}methyl)-1,3-thiazole-4-carboxamide]",0.05 to 0.5 µM
15,"COc1cc(CCNC(=O)c2csc(CNC(=O)COc3ccc(OC(F)(F)F)cc3)n2)cc(OC)c1 [Entry 30, N-{2-[3,5-bis(methyloxy)phenyl]ethyl}-2-({[({4-[(trifluoromethyl)oxy]phenyl}oxy)acetyl]amino}methyl)-1,3-thiazole-4-carboxamide]",0.05 to 0.5 µM
16,"CCc1ccc(OCC(=O)NCc2nc(C(=O)NCCc3cccc(Cl)c3)cs2)cc1 [Entry 111, N-[2-(3-chlorophenyl)ethyl]-2-[({[(4-ethylphenyl)oxy]acetyl}amino)methyl]-1,3-thiazole-4-carboxamide]",0.05 to 0.5 µM
17,"CSc1ccccc1CNC(=O)c1csc(CNC(=O)COc2ccc(OC(F)(F)F)cc2)n1 [Entry 41, N-{[2-(methylthio)phenyl]methyl}-2-({[({4-[(trifluoromethyl)oxy]phenyl}oxy)acetyl]amino}methyl)-1,3-thiazole-4-carboxamide]",0.05 to 0.5 µM
18,"O=C(COc1ccc(OC(F)(F)F)cc1)NCc1nc(C(=O)NCCC2=CCCCC2)co1 [Entry 176, N-(2-cyclohex-1-en-1-ylethyl)-2-({[({4-[(trifluoromethyl)oxy]phenyl}oxy)acetyl]amino}methyl)-1,3-oxazole-4-carboxamide]",0.05 to 0.5 µM

# Results, then the compound that gave them:
row,IC50,Compound
1,0.5 to 2 µM,"CCCC1CCN(C(=O)c2csc(CNC(=O)COc3ccc(OC(F)(F)F)cc3)n2)CC1 [Entry 245, N-({4-[(4-propylpiperidin-1-yl)carbonyl]-1,3-thiazol-2-yl}methyl)-2-({4-[(trifluoromethyl)oxy]phenyl}oxy)acetamide]"
2,0.05 to 0.5 µM,"CCCCOc1ccc(NC(=O)NCc2nc(C(=O)NCc3ccccc3OC)cs2)cc1 [Entry 214, 2-{[({[4-(butyloxy)phenyl]amino}carbonyl)amino]methyl}-N-{[2-(methyloxy)phenyl]methyl}-1,3-thiazole-4-carboxamide]"
3,0.5 to 2 µM,"Cc1ccc(N2CCN(C(=O)c3csc(CNC(=O)COc4ccc(OC(F)(F)F)cc4)n3)CC2C)cc1 (centres unmarked) [Entry 243, N-[(4-{[3-methyl-4-(4-methylphenyl)piperazin-1-yl]carbonyl}-1,3-thiazol-2-yl)methyl]-2-({4-[(trifluoromethyl)oxy]phenyl}oxy)acetamide]"
4,0.5 to 2 µM,"O=C(NCc1nc(C(=O)NCCc2cccc(Cl)c2)cs1)OCc1ccc(OC(F)(F)F)cc1 [Entry 298, {4-[(trifluoromethyl)oxy]phenyl}methyl {[4-({[2-(3-chlorophenyl)ethyl]amino}carbonyl)-1,3-thiazol-2-yl]methyl}carbamate]"
5,0.05 to 0.5 µM,"O=C(COc1ccc(OC(F)(F)F)cc1)NCc1nc(C(=O)NC2CCCCC2)cs1 [Entry 209, N-cyclohexyl-2-({[({4-[(trifluoromethyl)oxy]phenyl}oxy)acetyl]amino}methyl)-1,3-thiazole-4-carboxamide]"
6,0.5 to 2 µM,"CN(C)c1ccc(CNC(=O)c2csc(CNC(=O)COc3ccc(OC(F)(F)F)cc3)n2)cc1 [Entry 237, N-{[4-(dimethylamino)phenyl]methyl}-2-({[({4-[(trifluoromethyl)oxy]phenyl}oxy)acetyl]amino}methyl)-1,3-thiazole-4-carboxamide]"
7,0.05 to 0.5 µM,"CC(C)CCCC(C)NC(=O)c1csc(CNC(=O)COc2ccc(OC(F)(F)F)cc2)n1 (centres unmarked) [Entry 212, N-(1,5-dimethylhexyl)-2-({[({4-[(trifluoromethyl)oxy]phenyl}oxy)acetyl]amino}methyl)-1,3-thiazole-4-carboxamide]"
8,0.5 to 2 µM,"O=C(COc1ccc(OC(F)(F)F)cc1)NCc1nc(C(=O)NCCc2ccc(Cl)cc2)co1 [Entry 246, N-[2-(4-chlorophenyl)ethyl]-2-({[({4-[(trifluoromethyl)oxy]phenyl}oxy)acetyl]amino}methyl)-1,3-oxazole-4-carboxamide]"
9,0.5 to 2 µM,"CSc1ccc(CC(=O)NCc2nc(C(=O)NCCc3cccc(Cl)c3)cs2)cc1 [Entry 232, N-[2-(3-chlorophenyl)ethyl]-2-[({[4-(methylthio)phenyl]acetyl}amino)methyl]-1,3-thiazole-4-carboxamide]"
10,0.5 to 2 µM,"O=C(COc1ccc(OC(F)(F)F)cc1)NCc1nc(C(=O)N2CC[C@H]3CCCC[C@@H]3C2)cs1 [Entry 266, N-({4-[(4aR,8aS)-octahydroisoquinolin-2(1H)-ylcarbonyl]-1,3-thiazol-2-yl}methyl)-2-({4-[(trifluoromethyl)oxy]phenyl}oxy)acetamide]"
11,0.5 to 2 µM,"O=C(COc1ccc(OC(F)(F)F)cc1)NCc1nc(C(=O)NC2CCCC2)cs1 [Entry 228, N-cyclopentyl-2-({[({4-[(trifluoromethyl)oxy]phenyl}oxy)acetyl]amino}methyl)-1,3-thiazole-4-carboxamide]"
12,0.5 to 2 µM,"O=C(COc1ccc(Br)cc1)NCc1nc(C(=O)NCCc2ccccc2F)cs1 [Entry 239, 2-[({[(4-bromophenyl)oxy]acetyl}amino)methyl]-N-[2-(2-fluorophenyl)ethyl]-1,3-thiazole-4-carboxamide]"
13,0.5 to 2 µM,"O=C(COc1ccc(OC(F)(F)F)cc1)NCc1nc(C(=O)NCc2ccc(Cl)c(Cl)c2)co1 [Entry 291, N-[(3,4-dichlorophenyl)methyl]-2-({[({4-[(trifluoromethyl)oxy]phenyl}oxy)acetyl]amino}methyl)-1,3-oxazole-4-carboxamide]"
14,> 2 µM,"CCC1COC(C)(CCC(C)C)N1C(=O)c1csc(CNC(=O)COc2ccc(OC(F)(F)F)cc2)n1 (centres unmarked) [Entry 310, N-[(4-{[4-ethyl-2-methyl-2-(3-methylbutyl)-1,3-oxazolidin-3-yl]carbonyl}-1,3-thiazol-2-yl)methyl]-2-({4-[(trifluoromethyl)oxy]phenyl}oxy)acetamide]"
